Earlier results as cited in patent publication US6368586B1, “Methods and compositions for enhancing the bioadhesive properties of polymers” (Brown University Research Foundation, priority 1996, dated 2002).
Where two headings read alike, the source gives them in different places.

Row | Acid Ionization Constants (pKa at 25° C.) for Aqua Ions | Acid Ionization Constants (pKa at 25° C.) for Aqua Ions (listed as Fe^3+) | Compound | Acid Ionization Constants (pKa at 25° C.) for Aqua Ions (listed as Ni^3+)
1 | 8.3 | 2.2 | [Fe+2] [Fe^2+] | –
2 | 11.4 | – | [Mg+2] [Mg^2+] | –

Further lines, the compound ahead of its results:

Row | Compound | Acid Ionization Constants (pKa at 25° C.) for Aqua Ions | Acid Ionization Constants (pKa at 25° C.) for Aqua Ions (listed as Fe^3+) | Acid Ionization Constants (pKa at 25° C.) for Aqua Ions (listed as Ni^3+)
3 | [Al+3] [Al^3+] | 4.9 | – | –
4 | [Ba+2] [Ba^2+] | 13.2 | – | –
5 | [Ca+2] [Ca^2+] | 12.6 | – | –
6 | [Cu+2] [Cu^2+] | 8.0 | – | –
7 | [Ni+2] [Ni^2+] | 10.6 | – | 9.7
